Reference: US10195196B2, “1,4-disubstituted pyridazine analogs there of and methods for treating SMN-deficiency-related conditions” (NOVARTIS AG, priority 2012, dated 2019)

Test system: SMN protein
Test: cellular SMN ELISA (SMN protein elevation)
Assay type: cell-based
Details: myoblast cell line from SMNdelta7 mouse model, 24 hours treatment; for SMN activity Fold: fold activation over DMSO control
Description: A cellular SMN ELISA was used to measure the effects of low molecular weight compounds on SMN protein elevation. Cells from a myoblast cell line derived from the SMNdelta7 mouse model (kind gift from Steve Burden, NYU) were seeded into a 384-well plate at a density of 3000 cells/well and treated with compounds for 24 hours. ELISA capture plates were prepared by coating 384-well plates (Immulon 4HBX) with 0.5 ug/mL of anti-SMN mAb (BD Science, Catalog number 610647) at 4° C. overnight. The plates were washed 5 times with 110 uL of PBS-Tween (0.05% Tween-20, PBST), blocked with 100 uL of 1% BSA in PBST for 2 hours and washed (5 times) with 100 uL of PBST. After 24 hours of compound treatment cells were lysed in a modified RIPA-buffer, on ice for 1 hour. 20 uL of lysate and 20 uL of 1% BSA were then added to the ELISA capture plates and incubated at 4° C. overnight. Plates were washed (5 times) with PBST and then incubated with 1:100 dilution of primary rabbit anti-SMN polyclonal antibody (Santa cruz, Catalog number SC-15320) at room temperature for 1 hour and subsequently washed (5 times) with 110 uL of PBST. This was followed by addition of 1:100 Goat anti-Rabbit IgG-HRP linked (Cell Signaling, Catalog number 7074) secondary antibody for 1 hour. Plates were then washed with PBST and incubated with 40 uL TMB substrate (Cell Signaling, Catalog number 7004L) at room temperature for 1-10 minutes with shaking. The reaction was stopped by addition of 40 uL of stop solution (Cell signaling, Catalog number 7002L) and absorption was measured at 450 nm. Data was reported as fold activation over DMSO control, and EC50.
ELISA assay condition 1: compound concentration range 20 nM-10 uM; ELISA assay condition 2: compound concentration 100 pM-10 uM.

[1] = ELISA condition 2: compound concentration 100 pM-10 uM
[2] = ELISA condition 1: compound concentration range 20 nM-10 uM

SMILES: CC1CC(Oc2ccc(-c3ccc(-n4cccn4)cc3O)nn2)CC(C)N1 (single isomer, unassigned) [Example 17-3, 2-(6-((2,6-Dimethylpiperidin-4-yl)oxy)pyridazin-3-yl)-5-(1H-pyrazol-1-yl)phenol]
- EC50 [1]: 183 nM
- SMN activity Fold [1]: 2.75 Fold

SMILES: CC1CC(Oc2ccc(-c3ccc(-n4cccn4)cc3O)nn2)CC(C)N1 (single isomer, unassigned) [Example 17-4, 2-(6-((2,6-Dimethylpiperidin-4-yl)oxy)pyridazin-3-yl)-5-(1H-pyrazol-1-yl)phenol]
- EC50 [1]: 92 nM
- SMN activity Fold [1]: 3.25 Fold

SMILES: CC1CC(Oc2ccc(-c3ccc(-n4cccn4)cc3O)nn2)CCN1 (single isomer, unassigned) [Example 17-6]
- EC50 [1]: 443 nM
- SMN activity Fold [1]: 2.58 Fold

SMILES: CC1CC(Oc2ccc(-c3ccc(-n4cccn4)cc3O)nn2)CCN1 (single isomer, unassigned) [Example 17-7]
- EC50 [1]: 617 nM
- SMN activity Fold [1]: 2.50 Fold

SMILES: Oc1cc(-n2cccn2)ccc1-c1ccc(OCC2CCNC2)nn1 (single isomer, unassigned) [Example 17-8, 5-(1H-pyrazol-1-yl)-2-(6-(pyrrolidin-3-ylmethoxy)pyridazin-3-yl)phenol]
- EC50 [1]: 3150 nM
- SMN activity Fold [1]: 2.18 Fold

SMILES: Oc1cc(-n2cccn2)ccc1-c1ccc(OCC2CCNC2)nn1 (single isomer, unassigned) [Example 17-9, 5-(1H-pyrazol-1-yl)-2-(6-(pyrrolidin-3-ylmethoxy)pyridazin-3-yl)phenol]
- EC50 [1]: 1670 nM
- SMN activity Fold [1]: 2.63 Fold

SMILES: CC1(C)CC(Nc2ccc(-c3ccccc3O)nn2)CC(C)(C)N1 [Example 1-3, 2-(6-(2,2,6,6-tetramethylpiperidin-4-ylamino)-pyridazin-3-yl)phenol]
- EC50 [1]: 726 nM
- SMN activity Fold [1]: 2.45 Fold

SMILES: CN(c1ccc(-c2cc3cc(C#N)ccc3s2)nn1)C1CC(C)(C)NC(C)(C)C1 [Example 1-4, 2-(6-(methyl-(2,2,6,6-tetra-methylpiperidin-4-yl)amino)pyridazin-3-yl)benzo[b]-thio-phene-5-carbonitrile]
- EC50 [2]: 90 nM
- SMN activity Fold [2]: 2.05 Fold

SMILES: CC1(C)CC(Nc2ccc(-c3cnc4ccccc4c3)nn2)CC(C)(C)N1 [Example 1-5, 6-(quinolin-3-yl)-N-(2,2,6,6-tetramethyl-piperidin-4-yl)pyridazin-3-amine]
- EC50 [2]: 650 nM
- SMN activity Fold [2]: 2.50 Fold

SMILES: CC1(C)CC(Oc2ccc(-c3cc4ccccc4s3)nn2)CC(C)(C)N1 [Example 1-6, 3-(benzo[b]-thiophen-2-yl)-6-(2,2,6,6-tetra-methylpiperidin-4-yloxy)pyridazine]
- EC50 [2]: 2440 nM
- SMN activity Fold [2]: 2.00 Fold

SMILES: CN(c1ccc(-c2ccccc2O)nn1)C1CC(C)(C)NC(C)(C)C1 [Example 1-7, 2-(6-(methyl-(2,2,6,6-tetra-methylpiperidin-4-yl)amino)-pyridazin-3-yl)phenol]
- EC50 [2]: 1550 nM
- SMN activity Fold [2]: 2.07 Fold

SMILES: CN(c1ccc(-c2ccc3cc(O)ccc3c2)nn1)C1CC(C)(C)NC(C)(C)C1 [Example 1-8, 6-(6-(methyl-(2,2,6,6-tetra-methylpiperidin-4-yl)amino)-pyridazin-3-yl)naphthalen-2-ol]
- EC50 [2]: 320 nM
- SMN activity Fold [2]: 2.18 Fold

SMILES: CC1(C)CC(Oc2ccc(-c3ccc4ccncc4c3)nn2)CC(C)(C)N1 [Example 1-10, 7-(6-((2,2,6,6-tetramethylpiperidin-4-yl)oxy)pyridazin-3-yl)isoquinoline]
- EC50 [1]: 1100 nM
- SMN activity Fold [1]: 2.75 Fold

SMILES: CC1(C)CC(Oc2ccc(-c3ccc4cnccc4c3)nn2)CC(C)(C)N1 [Example 1-11, 6-(6-((2,2,6,6-tetramethylpiperidin-4-yl)oxy)pyridazin-3-yl)isoquinoline]
- EC50 [1]: 3900 nM
- SMN activity Fold [1]: 2.67 Fold

SMILES: CN(c1ccc(-c2ccc3cccnc3c2)nn1)C1CC(C)(C)NC(C)(C)C1 [Example 1-12, N-methyl-6-(quinolin-7-yl)-N-(2,2,6,6-tetramethyl-piperidin-4-yl)pyridazin-3-amine]
- EC50 [1]: 367 nM
- SMN activity Fold [1]: 2.54 Fold

SMILES: CN(c1ccc(-c2ccc3ncccc3c2)nn1)C1CC(C)(C)NC(C)(C)C1 [Example 1-13, N-methyl-6-(quinolin-6-yl)-N-(2,2,6,6-tetramethylpiperidin-4-yl)pyridazin-3-amine]
- EC50 [1]: 661 nM
- SMN activity Fold [1]: 2.22 Fold

SMILES: CN(c1ccc(-c2ccc3ccncc3c2)nn1)C1CC(C)(C)NC(C)(C)C1 [Example 1-14, 6-(isoquinolin-7-yl)-N-methyl-N-(2,2,6,6-tetramethylpiperidin-4-yl)pyridazin-3-amine]
- EC50 [1]: 252 nM
- SMN activity Fold [1]: 3.13 Fold

SMILES: CN(c1ccc(-c2ccc3cnccc3c2)nn1)C1CC(C)(C)NC(C)(C)C1 [Example 1-15, 6-(isoquinolin-6-yl)-N-methyl-N-(2,2,6,6-tetramethylpiperidin-4-yl)pyridazin-3-amine]
- EC50 [1]: 197 nM
- SMN activity Fold [1]: 2.93 Fold

SMILES: CN(c1ccc(-c2ccc3nccn3c2)nn1)C1CC(C)(C)NC(C)(C)C1 [Example 1-16, 6-(imidazo[1,2-a]pyridin-6-yl-pyridazin-3-yl)-methyl-(2,2,6,6-tetramethyl-piperidin-4-yl)-amine]
- EC50 [1]: 2980 nM
- SMN activity Fold [1]: 2.28 Fold

SMILES: CN(c1ccc(-c2ccc(-c3ccccc3)nc2)nn1)C1CC(C)(C)NC(C)(C)C1 [Example 1-17, methyl-[6-(6-phenyl-pyridin-3-yl)-pyridazin-3-yl]-(2,2,6,6-tetramethyl-piperidin-4-yl)-amine]
- EC50 [1]: 926 nM
- SMN activity Fold [1]: 2.37 Fold

SMILES: CN(c1ccc(-c2ccc(-n3cccc3)nc2)nn1)C1CC(C)(C)NC(C)(C)C1 [Example 1-18, methyl-[6-(6-pyrrol-1-yl-pyridin-3-yl)-pyridazin-3-yl]-(2,2,6,6-tetramethyl-piperidin-4-yl)-amine]
- EC50 [2]: 1130 nM
- SMN activity Fold [2]: 2.69 Fold

SMILES: CN(c1ccc(-c2ccc(-n3cccn3)nc2)nn1)C1CC(C)(C)NC(C)(C)C1 [Example 1-19, methyl-[6-(6-pyrazol-1-yl-pyridin-3-yl)-pyridazin-3-yl]-(2,2,6,6-tetramethyl-piperidin-4-yl)-amine]
- EC50 [2]: 740 nM
- SMN activity Fold [2]: 3.10 Fold

SMILES: CN(c1ccc(-c2cnc3ccccc3n2)nn1)C1CC(C)(C)NC(C)(C)C1 [Example 1-20, methyl-(6-quinoxalin-2-yl-pyridazin-3-yl)-(2,2,6,6-tetramethyl-piperidin-4-yl)-amine]
- EC50 [2]: 470 nM
- SMN activity Fold [2]: 3.04 Fold

SMILES: CN(c1ccc(-c2cnc3ccccc3c2)nn1)C1CC(C)(C)NC(C)(C)C1 [Example 1-21, methyl-(6-quinolin-3-yl-pyridazin-3-yl)-(2,2,6,6-tetramethyl-piperidin-4-yl)-amine]
- EC50 [2]: 630 nM
- SMN activity Fold [2]: 2.49 Fold

SMILES: CN(c1ccc(-c2ccc3cnncc3c2)nn1)C1CC(C)(C)NC(C)(C)C1 [Example 1-22, N-methyl-6-(phthalazin-6-yl)-N-(2,2,6,6-tetramethylpiperidin-4-yl)pyridazin-3-amine]
- EC50 [1]: 867 nM
- SMN activity Fold [1]: 2.71 Fold

SMILES: CC1(C)CC(Nc2ccc(-c3ccc4nonc4c3)nn2)CC(C)(C)N1 [Example 2-1, 6-(benzo[c][1,2,5]oxa-diazol-5-yl)-N-(2,2,6,6-tetramethyl-piperidin-4-yl)pyridazin-3-amine]
- EC50 [2]: 1370 nM
- SMN activity Fold [2]: 2.68 Fold

SMILES: CC1(C)CC(Nc2ccc(-c3ccc4scnc4c3)nn2)CC(C)(C)N1 [Example 2-2, 6-(benzo[d]thiazol-5-yl)-N-(2,2,6,6-tetramethyl-piperidin-4-yl)pyridazin-3-amine]
- EC50 [2]: 1030 nM
- SMN activity Fold [2]: 2.37 Fold

SMILES: Cc1nc2ccc(-c3ccc(NC4CC(C)(C)NC(C)(C)C4)nn3)cc2o1 [Example 2-3, 6-(2-methylbenzo-[d]oxazol-6-yl)-N-(2,2,6,6-tetramethyl-piperidin-4-yl)pyridazin-3-amine]
- EC50 [2]: 1200 nM
- SMN activity Fold [2]: 2.46 Fold

SMILES: CN(c1ccc(-c2ccc(Cl)cc2O)nn1)C1CC(C)(C)N(C)C(C)(C)C1 [Example 3-2, 5-chloro-2-(6-(methyl(1,2,2,6,6-pentamethylpiperidin-4-yl)amino)pyridazin-3-yl)phenol]
- EC50 [2]: 1070 nM
- SMN activity Fold [2]: 2.06 Fold

SMILES: CC1(C)CC(Nc2ccc(-c3cc4ccccc4cc3O)nn2)CC(C)(C)N1 [Example 3-3, 3-(6-(2,2,6,6-tetramethylpiperidin-4-ylamino)pyridazin-3-yl)naphthalen-2-ol]
- EC50 [2]: 64 nM
- SMN activity Fold [2]: 2.48 Fold

SMILES: CN1C(C)(C)CC(Nc2ccc(-c3ccc(Cl)cc3O)nn2)CC1(C)C [Example 3-4, 5-chloro-2-(6-(1,2,2,6,6-pentamethylpiperidin-4-ylamino)pyridazin-3-yl)phenol]
- EC50 [2]: 620 nM
- SMN activity Fold [2]: 2.03 Fold
